Measured values from US20040086883A1, “Method and device for characterising and/or for detecting a bonding complex” (priority 2000, published 2004).
{Cy3} = Cy3 fluorescent dye label

Columns and labels:
[1] = tested on: DNA-duplexes with oligo1 and oligo3; experiment: Differential force test comparing two DNA-duplexes (oligo2 with oligo1 versus oligo2 with oligo3); type: binding; conditions: for Q St = ΔCy3St/ΔCy5St: enrichment of Cy3-oligo2 relative to Cy5-oligo3; for Q Unt = ΔCy3Unt/ΔCy5Unt: depletion of Cy3-oligo2 relative to Cy5-oligo3
streptavidin [2] = biological target: T1, streptavidin (Streptomyces avidinii, UniProt P22629); experiment: Differential force test comparing biotin/streptavidin and iminobiotin/streptavidin complexes (pillar pressing); type: binding; conditions: for proportion of streptavidin transferred from the hapten on the substrate to the biotin-coated pillar: pH 10 buffer, 30 minutes contact, Alexa-Fluor-546 marked streptavidin
T1 construct: purchased Molecular Probes, Eugene
Source text: Biotin and iminobiotin are bound to a substrate. Fluorescence-marked streptavidin is bound to the immobilized haptens. A plunger or pillar which is coated with biotin is moved towards the substrate in such a way that the biotin which is bound to the pillar can bind the streptavidin coupled by way of the haptens to the substrate. The pillar is then removed again. To conclude, the procedure involves determining which proportion of the streptavidin was transferred from the iminobiotin of the substrate onto the biotin of the pillar and which proportion of the streptavidin was transferred from the biotin of the substrate onto the biotin of the pillar.
20 μl of a solution with 2 mg/100 μl of NHS-PEG-biotin (Shearwater, Huntsville) was incubated under a cover glass for 1 hour on a pillar with an area of 1 cm^2. It was washed with very pure water and blown dry with nitrogen.
A glass object carrier was cleaned by a 100-minute treatment with saturated KOH-ethanol solution. The cleaned surface was incubated with 3% aminosilane (3-aminopropyldimethyl-ethoxysilane; ABCR, Karlsruhe) in 10% H2O and 87% Ethanol for 30 minutes. The silanised surface was washed with very pure water and blown dry with nitrogen. […] The tBoc protective group was then split off with trifluoro-acetic acid. NHS-biotin and NHS-iminobiotin (Sigma, St. Louis) were respectively diluted starting from a 50 mM stock solution in DMSO to give a final concentration of 5 mM with PBS (phosphate buffered saline, Sigma). The attachment of biotin or iminobiotin respectively to the amino-functionalized glass substrate was effected from that solution. That was incubated for one hour in a saturated water atmosphere, washed with very pure water and blown dry with nitrogen.
For the purposes of binding the streptavidin AlexaFluor ? -546 conjugate (Molecular Probes, Eugene), a solution was produced, involving a concentration of 0.1 mg/ml in a glycine/NaOH-buffer (pH 10). The substrate was incubated for 20 minutes with the solution, then washed for 5 minutes in that buffer and blown dry with nitrogen. […]

avidin = avidin (Gallus gallus, UniProt P02701); conditions: AFM force spectrometer, Florin et al. Science 1994; cited from earlier work
streptavidin [3] = biological target: T1, streptavidin; experiment: Force test with reverse pillar pressing, biotin/streptavidin versus desthiobiotin/streptavidin; type: binding
Procedure: The polymerized structured and unstructured PDMS plates were cut to a size of 1 cm^2. Then the pieces were exposed to an H2O plasma in a plasma furnace at 2 mbar for 30 s. The oxidized surface was incubated with a solution of 2% aldehyde silane (4-triethoxysilylbutanal, Amchro, Hattersheim, Germany) in 10% H2O and 88% ethanol for 30 minutes. The silanised surface was washed with ethanol and very pure water and blown dry with nitrogen.
The functionalized substrates and pillars were incubated overnight in PBS (phosphate buffered saline; Sigma, St. Louis, USA) with 2% BSA (bovine serum albumin; Roth, Karlsruhe, Germany). In that case BSA binds with its amino groups to the aldehyde groups of the surface. For stabilization purposes the resulting Schiff's bases were reduced with 1% sodium borohydride for 15 minutes. […]
Depending on the respective pillar composition a fluorescence-marked streptavidin-AlexaFluor ? -647 conjugate (Molecular Probes, Eugene) was bound to the substrate or the pillar. […]
The reverse implementation permits evaluation which is independent of the coupling efficiency. […] That assumption is permissible here by virtue of the very similar properties of the binding partners BP1 and BP4 to be compared (for example size) and can also be checked by measurement of fluorescence intensity prior to the pillar pressing procedure. […]

T1 sequence (P22629 25-183): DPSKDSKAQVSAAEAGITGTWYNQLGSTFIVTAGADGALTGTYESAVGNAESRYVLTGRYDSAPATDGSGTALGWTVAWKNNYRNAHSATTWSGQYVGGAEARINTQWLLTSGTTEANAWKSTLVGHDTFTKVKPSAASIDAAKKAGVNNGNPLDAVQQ
Sequence of avidin (P02701 25-152, species assumed): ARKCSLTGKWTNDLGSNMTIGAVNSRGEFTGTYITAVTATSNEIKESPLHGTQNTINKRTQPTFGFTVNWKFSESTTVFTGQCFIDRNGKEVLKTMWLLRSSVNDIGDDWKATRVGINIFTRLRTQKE

Molecule	Q St = ΔCy3St/ΔCy5St ([1]; pillar)	Q Unt = ΔCy3Unt/ΔCy5Unt ([1]; substrate)	proportion of streptavidin transferred from the hapten on the substrate to the biotin-coated pillar (streptavidin [2]) [%]	unbinding force of the receptor-ligand pair (avidin) [pN]	also measured
5′TTGCTCCCAGACTCTCTGCTGAAAGTCCCTTTGATAATCGTAACGAGGGGTTATACGCCGTAAAGCCCGGAGA-Cy3 [oligo2a]	1.20 ± 0.08	0.69±0.09			unbinding force of the duplex with oligo3, higher than the duplex between oligo 2b and oligo3 ([1]; from QSt and QUnt): at least 500%; QSt = QA St/QB St ([1]; pillar, Experiment 2a relative to reference experiment 2b): 1.97; QA St corr. ([1]; pillar, corrected by factor 0.82): 0.98; QUnt = QA Unt/QB Unt ([1]; substrate, Experiment 2a relative to reference experiment 2b): 1.92; QA Unt corr. ([1]; substrate, corrected by factor 1.39): 0.96
O=C(O)CCCC[C@@H]1SC[C@@H]2NC(=O)N[C@@H]21 [biotin]			15	160	relative strength of the streptavidin-hapten bond (streptavidin [2]; biotin versus iminobiotin, assuming identical coupling efficiency and equal density): stronger
C[C@@H]1NC(=O)N[C@@H]1CCCCCC(=O)O [desthiobiotin]					quotient of the transfer to desthiobiotin and the transfer to biotin (streptavidin [3]; average of both tests): 0.18; binding force to streptavidin relative to biotin (streptavidin [3]; reverse pillar pressing): weaker
N=C1N[C@H]2[C@H](CS[C@H]2CCCCC(=O)O)N1 [iminobiotin]			30	85±15	
5′ACTCTCTGCTGAAAGTCCCTTTGATAATCGTAACGAGGGGTTATACGCCGTAAAGCCGGAGA-Cy3 (nucleic acid, DNA, 3' {Cy3}, backbone not given here) ACTCTCTGCTGAAAGTCCCTTTGATAATCGTAACGAGGGGTTATACGCCGTAAAGCCGGAGA	0.61 ± 0.08	0.36±0.08			
